# Assay results reported in patent US12453731B2, “Aniline-based WDR5 protein-protein interaction inhibitor, and preparation method and use thereof” (CHINA PHARMACEUTICAL UNIVERSITY, priority 2019, dated 2025).
# Where two headings read alike, the source gives them in different places.
# Key:
# MLL1-WDR5 PPI = MLL1-WDR5 PPI (Homo sapiens (Human), UniProt P61964); experiment: fluorescent probe assay of MLL1-WDR5 protein-protein interaction inhibition; type: binding; conditions: fluorescent probe based on MLL1 peptide, incubation 0.5 hrs, read-out: MLL1-WDR5 PPI inhibiting activity IC50
# Method: In the present disclosure, a fluorescent molecular probe was constructed based on a MLL1 peptide fragment binding to WDR5, for use as a method for study on an aniline compound interfering with WDR5 protein-protein interaction, to determine an inhibition rate of the aniline compound at various concentrations, and then compute the IC50 value. Specific experimental steps: 20 μL of WDR5 protein, 20 μL of a fluorescent probe, and 20 μL of a compound of different concentration gradients were added to a 384-well plate respectively. After incubation for 0.5 hrs, the fluorescence was read on a multifunctional microplate reader at an excitation wavelength of 485 nm and an emission wavelength of 535 nm, to compute the mP value. The inhibition rate was computed as per the formula below, and then the IC50 value was computed using GraphPad software.
# [1] = tested on: MV4-11 human acute mononuclear leukemia cells; experiment: anti-proliferative activity against leukemia cells MV4-11; type: cell-based; conditions: read-out: GI50 (MV-411)
# Text: (§1) Some compounds of the present disclosure have also been tested for the antiproliferative activity against leukemia cells.
# [2] = tested on: methylation level of H3K4; experiment: inhibition of the methylation level of H3K4 (methyltransferase activity); type: biochemical
# [3] = tested on: Molm-13 human acute myeloid leukemia cells; experiment: anti-proliferative activity against leukemia cells Molm-13; type: cell-based
# Text: as §1
# [4] = Homo sapiens, MV4-11, MV4-11 cells
# [5] = Homo sapiens, MOLM-13, Molm-13 cells
compound,measurement,setting,value
"Cc1c(F)c(N)cc(C(=O)Nc2cc(-c3ccc(N)cc3)ccc2N2CCN(C)CC2)c1Cl [DDO-2084, reference compound]",IC50,MLL1-WDR5 PPI,338 µM
same,GI50,[1]; MV4-11 cells,17.7 ± 2.3 µM
same,Whether the methylation level of H3K4 was inhibited,[2],Yes
"CN1CCN(c2ccc([N+](=O)[O-])cc2Nc2cc(Cl)ncn2)CC1 [Example 2, 6-chloro-N-(2-(4-methylpiperazin-1-yl)-5-nitrophenyl)pyrimidine-4-amine]",IC50,MLL1-WDR5 PPI,10.3 µM
"CN1CCN(c2ccc([N+](=O)[O-])cc2Nc2ncnc(Cl)c2N)CC1 [Example 7, 6-chloro-N^4-(2-(4-methylpiperazin-1-yl)-5-nitrophenyl)pyrimidine-4,5-diamine]",IC50,MLL1-WDR5 PPI,2.66 µM
"CN1CCN(c2ccc(-c3ccc(C(=O)N4CCOCC4)cc3)cc2Nc2ncnc(Cl)c2N)CC1 [Example 23, (3″-((5-amino-6-chloropyrimidin-4-yl)amino)-4-(4-methylpiperazin-1-yl)-[1,1′-biphenyl]-4-yl)(morpholino)methanone]",IC50,MLL1-WDR5 PPI,0.186 µM
same,GI50,[1]; [4],16.7 µM
same,GI50,[3]; [5],23.4 µM
same,Whether the methylation level of H3K4 was inhibited,[2],Yes
"CN1CCN(c2ccc(-c3ccc(C(=O)NCCN4CCOCC4)cc3)cc2Nc2ncnc(Cl)c2N)CC1 [Example 24, 3″-((5-amino-6-chloropyrimidin-4-yl)amino)-4″-(4-methylpiperazin-1-yl)-N-(2-morpholinoethyl)-[1,1′-biphenyl]-zole-4-carboxamide]",IC50,MLL1-WDR5 PPI,0.183 µM
same,GI50,[1]; [4],11 µM
same,GI50,[3]; [5],17.6 µM
same,Whether the methylation level of H3K4 was inhibited,[2],Yes
"CN1CCN(c2ccc(-c3ccc(C(=O)NCCCN4CCOCC4)cc3)cc2Nc2ncnc(Cl)c2N)CC1 [Example 25, 3″-((5-amino-6-chloropyrimidin-4-yl)amino)-4″-(4-methylpiperazin-1-yl)-N-(3-morpholinopropyl)-[1,1′-biphenyl]-zole-4-carboxamide]",IC50,MLL1-WDR5 PPI,0.165 µM
same,GI50,[1]; [4],24.9 µM
same,GI50,[3]; [5],20.8 µM
same,Whether the methylation level of H3K4 was inhibited,[2],Yes
"CN1CCN(c2ccc(-c3ccc(C(=O)N(C)C)cc3)cc2Nc2ncnc(Cl)c2N)CC1 [Example 26, 3″-((5-amino-6-chloropyrimidin-4-yl)amino)-N,N-dimethyl-4″-(4-methylpiperazin-1-yl)-[1,1′-biphenyl]-4-carboxamide]",IC50,MLL1-WDR5 PPI,0.36 µM
same,GI50,[1]; [4],48.6 µM
same,GI50,[3]; [5],30.7 µM
same,Whether the methylation level of H3K4 was inhibited,[2],Yes
"CN1CCN(C(=O)c2ccc(-c3ccc(N4CCN(C)CC4)c(Nc4ncnc(Cl)c4N)c3)cc2)CC1 [Example 27, (3″-((5-amino-6-chloropyrimidin-4-yl)amino)-4″-(4-methylpiperazin-1-yl)-[1,1′-biphenyl]-4-yl)(4-methylpiperazin-1-yl) methanone]",IC50,MLL1-WDR5 PPI,0.217 µM
same,GI50,[1]; [4],39.2 µM
same,GI50,[3]; [5],34 µM
same,Whether the methylation level of H3K4 was inhibited,[2],Yes
"CN(C)CCCNC(=O)c1ccc(-c2ccc(N3CCN(C)CC3)c(Nc3ncnc(Cl)c3N)c2)cc1 [Example 28, 3″-((5-amino-6-chloropyrimidin-4-yl)amino)-N-(3-(dimethylamino)propyl)-4″-(4-methylpiperazin-1-yl)-[1,1′-biphenyl]-4-carboxamide]",IC50,MLL1-WDR5 PPI,0.27 µM
same,GI50,[1]; [4],29.7 µM
same,GI50,[3]; [5],24.3 µM
same,Whether the methylation level of H3K4 was inhibited,[2],Yes
"CN1CCN(c2ccc(-c3ccc(C(=O)NCCN4CCCC4)cc3)cc2Nc2ncnc(Cl)c2N)CC1 [Example 29, 3″-((5-amino-6-chloropyrimidin-4-yl)amino)-4″-(4-methylpiperazin-1-yl)-N-(2-(pyrrolidin-1-yl)ethyl)-[11,1′-biphenylyl]-4-carboxamide]",IC50,MLL1-WDR5 PPI,0.37 µM
same,GI50,[1]; [4],16.6 µM
same,GI50,[3]; [5],18.2 µM
same,Whether the methylation level of H3K4 was inhibited,[2],Yes
"CN1CCN(c2ccc(-c3ccc(C(=O)NCCCO)cc3)cc2Nc2ncnc(Cl)c2N)CC1 [Example 30, 3″-((5-amino-6-chloropyrimidin-4-yl)amino)-N-(3-hydroxylpropyl)-4″-(4-methylpiperazin-1-yl)-[1,1′-biphenyl]-zole-4-carboxamide]",IC50,MLL1-WDR5 PPI,0.31 µM
same,GI50,[1]; [4],27.3 µM
same,GI50,[3]; [5],32.6 µM
same,Whether the methylation level of H3K4 was inhibited,[2],Yes
"CN1CCN(c2ccc(-c3ccc(NC(=O)c4ccccc4)cc3)cc2Nc2ncnc(Cl)c2N)CC1 [Example 37, N-(3″-((5-amino-6-chloropyrimidin-4-yl)amino)-4″-(4-methylpiperazin-1-yl)-[1,1′-biphenyl]-4-yl)benzenecarboxamide]",IC50,MLL1-WDR5 PPI,5.55 µM
same,Whether the methylation level of H3K4 was inhibited,[2],Yes
"COc1ccc(-c2ccc(N3CCN(C)CC3)c(Nc3ncnc(Cl)c3N)c2)cc1 [Example 42, 6-chloro-N-(4′-methoxyl-4-(4-methylpiperazin-1-yl)-[1,1′-biphenyl]-3-yl)pyrimidine-4,5-diamine]",IC50,MLL1-WDR5 PPI,1.56 µM
"CN1CCN(c2ccc(-c3ccoc3)cc2Nc2ncnc(Cl)c2N)CC1 [Example 43, 6-chloro-N^4-(5-(furan-3-yl)-2-(4-methylpiperazin-1-yl)phenyl)pyrimidine-4,5-diamine]",IC50,MLL1-WDR5 PPI,11.4 µM
"CN1CCN(c2ccc(-c3cncnc3)cc2Nc2ncnc(Cl)c2N)CC1 [Example 44, 6-chloro-N^4-(2-(4-methylpiperazin-1-yl)-5-(pyrimidine-5-yl)phenyl)pyrimidine-4,5-diamine]",IC50,MLL1-WDR5 PPI,5.71 µM
"CN1CCN(c2ccc(-c3ccncc3)cc2Nc2ncnc(Cl)c2N)CC1 [Example 45, 6-chloro-N^4-(2-(4-methylpiperazin-1-yl)-5-(pyridin-4-yl)phenyl)pyrimidine-4,5-diamine]",IC50,MLL1-WDR5 PPI,0.56 µM
same,GI50,[1]; [4],27.3 µM
same,GI50,[3]; [5],23.2 µM
"CN1CCN(c2ccc(-n3cc(C(=O)NCCCN4CCOCC4)nn3)cc2Nc2ncnc(Cl)c2N)CC1 [Example 48, 1-(3-((5-amino-6-chloropyrimidin-4-yl)amino)-4-(4-methylpiperazin-1-yl)phenyl)-N-(3-morpholinopropyl)-1H-1,2,3-triazole-4-carboxamide]",IC50,MLL1-WDR5 PPI,1.09 µM
"CN1CCN(C(=O)c2cn(-c3ccc(N4CCN(C)CC4)c(Nc4ncnc(Cl)c4N)c3)nn2)CC1 [Example 49, (1-(3-((5-amino-6-chloropyrimidin-4-yl)amino)-4-(4-methylpiperazin-1-yl)phenyl)-1H-1,2,3-triazole-4-yl)(4-methylpiperazin-1-yl)methanone]",IC50,MLL1-WDR5 PPI,1.25 µM
"CN1CCN(c2ccc(-n3cc(C(=O)N(C)C)nn3)cc2Nc2ncnc(Cl)c2N)CC1 [Example 50, 1-(3-((5-amino-6-chloropyrimidin-4-yl)amino)-4-(4-methylpiperazin-1-yl)phenyl)-N,N-dimethyl-1H-1,2,3-triazole-4-carboxamide]",GI50,[1]; [4],29.6 µM
same,GI50,[3]; [5],35.5 µM
same,Whether the methylation level of H3K4 was inhibited,[2],Yes
"CN1CCN(c2ccc(-n3cc(C(=O)N(C)C)nn3)cc2Nc2ncnc(Cl)c2N)CC1 [Example 51, 1-(3-((5-amino-6-chloropyrimidin-4-yl)amino)-4-(4-methylpiperazin-1-yl)phenyl)-N,N-dimethyl-1H-1,2,3-triazole-4-carboxamide]",GI50,[1]; MV4-11 cells,38 µM
same,GI50,[3]; Molm-13 cells,39 µM
same,Whether the methylation level of H3K4 was inhibited,[2],Yes
"CN(C)CCNC(=O)c1cn(-c2ccc(N3CCN(C)CC3)c(Nc3ncnc(Cl)c3N)c2)nn1 [Example 52, 1-(3-((5-amino-6-chloropyrimidin-4-yl)amino)-4-(4-methylpiperazin-1-yl)phenyl)-N-(2-(dimethylamino)ethyl)-1H-1,2,3-triazole-4-carboxamide]",IC50,MLL1-WDR5 PPI,1.56 µM
"CN1CCN(c2ccc(-n3cc(C(=O)NCCN4CCCC4)nn3)cc2Nc2ncnc(Cl)c2N)CC1 [Example 53, 1-(3-((5-amino-6-chloropyrimidin-4-yl)amino)-4-(4-methylpiperazin-1-yl)phenyl)-N-(2-(pyrrolidin-1-yl)ethyl)-1H-1,2,3-triazole-4-carboxamide]",IC50,MLL1-WDR5 PPI,1.61 µM
"Cc1c(-c2ccc(C(=O)N(C)C)cc2)ccc(N2CCN(C)CC2)c1Nc1ncnc(Cl)c1N [Example 65, 3″-((5-amino-6-chloropyrimidin-4-yl)amino)-N,N,2′-trimethyl-4″-(4-methylpiperazin-1-yl)-[1,1′-biphenyl]-4-carboxamide]",IC50,MLL1-WDR5 PPI,0.671 µM
"COC(=O)c1ccc(-c2cc(Nc3ncnc(Cl)c3N)c(N3CCN(C)CC3)cc2F)cc1 [Example 66, Methyl 5′-((5-amino-6-chloropyrimidin-4-yl)amino)-2′-fluoro-4′-(4-methylpiperazin-1-yl)-[1,1′-biphenyl]-4-carboxylate]",IC50,MLL1-WDR5 PPI,0.04 µM
same,GI50,[1]; [4],14.4 µM
same,Whether the methylation level of H3K4 was inhibited,[2],Yes
"COC(=O)c1ccc(-c2cc(Nc3ncnc(Cl)c3N)c(N3CCN(C)CC3)cc2C)cc1 [Example 73, Methyl 5′-((5-amino-6-chloropyrimidin-4-yl)amino)-2′-methyl-4′-(4-methylpiperazin-1-yl)-[1,1′-biphenyl]-4-carboxylate]",IC50,MLL1-WDR5 PPI,0.316 µM
same,Whether the methylation level of H3K4 was inhibited,[2],Yes
"Cc1cc(N2CCN(C)CC2)c(Nc2ncnc(Cl)c2N)cc1-c1ccc(C(=O)NCCCN2CCOCC2)cc1 [Example 74, 5″-((5-amino-6-chloropyrimidin-4-yl)amino)-2′-methyl-4″-(4-methylpiperazin-1-yl)-N-(3-morpholinopropyl)-[1,11,1′-terphenyl]-4-carboxamide]",IC50,MLL1-WDR5 PPI,0.465 µM
same,Whether the methylation level of H3K4 was inhibited,[2],Yes
